Measurements published in patent publication US5948775A, “2- or 3-(substitutedaminoalkoxyphenyl)quinazolin-4-ones” (American Home Products Corporation, priority 1998, dated 1999).
Like-named read-outs stand apart in the source and are kept apart here.

Legend:
Ishikawa cells = experiment: Ishikawa Cell Alkaline Phosphatase Assay; assay type: cell-based; settings: Homo sapiens, 48 h
Method: Ishikawa Cell Alkaline Phosphatase Assay
Cell Maintenance and Treatment:
Ishikawa cells were maintained in DMEM/F12 (50%:50%) containing phenol red+10% fetal bovine serum and the medium was supplemented with 2 mM Glutamax, 1% Pen/Strap and 1 mM sodium pyruvate. Five days prior to the beginning of each experiment (treatment of cells) the medium was changed to phenol red-free DMEM/F12+10% dextran coated charcoal stripped serum. On the day before treatment, cells were harvested using 0.5% trypsin/EDTA and plated at a density of 5×10^4 cells/well in 96-well tissue culture plates. […] Cells were treat for 48 h prior to assay. […] Sample population for at each dose was n=8.
Alkaline Phosphatase Assay:
At the end of 48 h the media is aspirated and cells are washed three times with phosphate buffered saline (PBS). 50 μL of lysis buffer (0.1 M Tris-HCl, pH 9.8, 0.2% Triton X-100) is added to each well. Plates are placed at -80° C. for a minimum of 15 minutes. Plates are thawed at 37° C. followed by the addition of 150 μL of 0.1 M Tris-HCl, pH 9.8, containing 4 mM para-nitrophenylphosphate (pNPP) to each well (final concentration, 3 mM pNPP).
Absorbance and slope calculations were made using the KineticCalc Application program (Bio-Tek Instruments, Inc., Winooski, Vt.). Results are expressed as the mean±S.D. of the rate of enzyme reaction (slope) averaged over the linear portion of the kinetic reaction curve (optical density readings every 5 minutes for 30 minutes absorbance reading).
A description of these methods is described by Holinka, C.

bone = settings: background statement; cited from earlier work
uterus = settings: background statement; cited from earlier work
human estrogen receptor = target: T1, human estrogen receptor (Homo sapiens, UniProt P03372); experiment: 2X VIT ERE Transfection Assay (luciferase, CHO cells stably transfected with human estrogen receptor); assay type: cell-based; settings: 24 h
T1 construct: expressed in transfected cells
Method: 2X VIT ERE Transfection Assay
Cell Maintenance and Treatment
Chinese Hamster Ovary cells (CHO) which had been stably transfected with the human estrogen receptor were maintained in DMEM+10% fetal bovine serum (FBS). 48 h prior to treatment the growth medium was replaced with DMEM lacking phenol red+10% dextran coated charcoal stripped FBS (treatment medium). Cells were plated at a density of 5000 cells/well in 96-well plates containing 200 μL of medium/well.
Calcium Phosphate Transfection
Reporter DNA (Fromega plasmid pGL2 containing two tandem copies of the vitellogenin ERE in front of the minimal thymidine kinase promoter driving the luciferase gene) was combined with the β-galactosidase expression plasmid pCH110 (Pharmacia) and carrier DNA (pTZ18U) in the following ratio:
20 μg of DNA/1 mL of transfection solution
The DNA (20 μg) was dissolved in 500 μL of 250 mM sterile CaCl2 and added dropwise to 500 μL of 2X HeBS (0.28 M NaCl, 50 mM HEPES, 1.5 mM Na2 HPO4, pH 7.05) and incubated at room temperature for 20 minutes. 20 μL of this mixture was added to each well of cells and remained on the cells for 16 h. […] Each treatment condition was performed on 8 wells (n=8) which were incubated for 24 h prior to the luciferase assay.
After 24 h exposure to compounds, the media was removed and each well washed with 2X with 125 μL of PBS lacking Mg^++ and Ca^++. […] The luciferan substrate (Promega) was added in 100 μL aliquots to each well automatically by the luminometer and the light produced (relative light units) was read 10 seconds after addition.
To the remaining 5 μL of lysate 45 μL of PBS was added. […] The plates were analyzed on a Molecular Devices specrophotometric plate reader at 410 nm. […]
The luciferase data was generated as relative light units (RLUs) accumulated during a 10 second measurement and automatically transferred to a JMP (SAS Inc.) file where background RLUs were subtracted. […] The mean and standard deviations were determined from a n=8 for each treatment. […]

estrogen receptor = target: T2, estrogen receptor (Homo sapiens, UniProt P03372); experiment: In vitro estrogen receptor binding assay (competition with [^3 H]-17-β-estradiol)
T2 construct: made in house; host or cells: Chinese Hamster Ovary (CHO) cells, ribosome-free cytosol
T2 sequence (P03372 1-595): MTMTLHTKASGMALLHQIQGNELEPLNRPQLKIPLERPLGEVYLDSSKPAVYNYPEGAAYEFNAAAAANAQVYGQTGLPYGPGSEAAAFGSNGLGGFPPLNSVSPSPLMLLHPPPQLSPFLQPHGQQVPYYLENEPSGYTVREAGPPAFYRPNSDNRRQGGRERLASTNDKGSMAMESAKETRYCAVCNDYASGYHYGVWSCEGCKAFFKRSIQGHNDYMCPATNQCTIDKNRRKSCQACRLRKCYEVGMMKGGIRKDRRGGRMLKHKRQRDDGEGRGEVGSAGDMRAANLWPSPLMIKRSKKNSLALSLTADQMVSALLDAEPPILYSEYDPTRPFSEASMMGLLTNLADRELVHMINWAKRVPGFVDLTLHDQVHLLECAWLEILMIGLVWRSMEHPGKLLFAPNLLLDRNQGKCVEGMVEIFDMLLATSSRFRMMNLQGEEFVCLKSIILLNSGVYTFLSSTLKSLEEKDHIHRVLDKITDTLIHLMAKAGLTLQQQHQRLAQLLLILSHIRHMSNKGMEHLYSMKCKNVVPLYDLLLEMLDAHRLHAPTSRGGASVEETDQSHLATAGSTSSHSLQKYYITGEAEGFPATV
Method: Cells were harvested by scraping the surface and then the cell suspension was placed on ice. […] The cytosol was then frozen and stored at -80° C. Protein concentration of the cytosol was estimated using the BCA assay with reference standard protein.
The plate was incubated at room temperature for 2.5 h. […] Samples were counted to 2% or 10 minutes, whichever occurs first. […] Also, wells containing radioactivity but no cytosol were processed with charcoal to estimate unremovable DPM of [^3 H]
For a description of these methods, see Hulme, E. C., ed. 1992. Receptor-Ligand Interactions: A Practical Approach. IRL Press, New York.(see especially chapter 8).

[1] = Test articles at 10^-6 M, alone, percent of response related to 1 nM 17β-estradiol (control), read-out: % Activation
[2] = Competition With 17-β-estradiol (0.8 nM), CHO cell cytosol

CC/C(=C(\c1ccccc1)c1ccc(OCCN(C)C)cc1)c1ccccc1 [Tamoxifen]
activation at 1 µM (Ishikawa cells): 0% | effect on bone (bone): increase bone mass | effect on the uterus (uterus): partial agonist effects in the uterus

O=C(c1ccc(OCCN2CCCCC2)cc1)c1c(-c2ccc(O)cc2)sc2cc(O)ccc12 [Raloxifene]
activation at 1 µM (Ishikawa cells; [1]): 5% | effect on bone (bone): sparing bone | effect on the uterus (uterus): stimulate uterine growth in animal models to a lesser degree than Tamoxifen

O=c1c2ccc(O)cc2nc(-c2ccc(O)cc2)n1-c1ccc(OCCN2CCCCC2)cc1 [Example 9, 7-Hydroxy-2-(4-hydroxy-phenyl)-3-{4-[2-(piperidin-1-yl)-ethoxy]-phenyl}-3H-quinazolin-4-one]
activation at 1 µM (human estrogen receptor): 72% | activation at 1 µM (Ishikawa cells; [1]): 0% | IC50 (estrogen receptor; read-out: IC50): 6.5 µM

O=c1c2cccc(O)c2nc(-c2ccc(OCCN3CCCCC3)cc2)n1-c1ccc(O)cc1 [Example 16, 8-Hydroxy-3-(4-hydroxy-phenyl)-2-{4-[2-(piperidin-1-yl)-ethoxy]-phenyl}-3H-quinazolin-4-one]
activation at 1 µM (human estrogen receptor): 14% | activation at 1 µM (Ishikawa cells; [1]): 0% | IC50 (estrogen receptor; [2]): Binding not detected at upper limit of assay

O=c1c2cccc(O)c2nc(-c2ccc(O)cc2)n1-c1ccc(OCCN2CCCCC2)cc1 [Example 21, 8-Hydroxy-2-(4-hydroxy-phenyl)-3-[4-(2-piperidin-1-yl-ethoxy)-phenyl]-3H-quinazolin-4-one]
activation at 1 µM (human estrogen receptor): 6% | activation at 1 µM (Ishikawa cells; [1]): 0% | IC50 (estrogen receptor; [2]): Binding not detected at upper limit of assay

C[C@]12CC[C@@H]3c4ccc(O)cc4CC[C@H]3[C@@H]1CC[C@@H]2O [17-β-estradiol, reference compound]
activation at 1 µM (Ishikawa cells; [1]): 100%
